PubChem BioAssay (NCI)
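A five-concentration, 48-hour dose response in 96-well plates underlies each endpoint, interpolated linearly between surrounding concentrations. Definition used: TGI = concentration required for complete inhibition of growth.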

Experiments:
Test in all cases: inhibition of tumour cell growth, NCI panel, 48 h
[1] = test system: A549 NSCLC
[2] = test system: NCI-H23 lung
[3] = test system: CCRF-CEM leukemia
[4] = test system: SF-539 CNS
[5] = test system: RPMI-8226 leukemia
[6] = test system: SR leukemia
[7] = test system: KM20L2 colon
[8] = test system: M19-MEL melanoma
[9] = test system: DMS 273 small cell lung
[10] = test system: LOX IMVI melanoma
[11] = test system: XF 498 CNS
[12] = test system: DLD-1 colon
[13] = test system: MALME-3M melanoma
[14] = test system: NCI-H460 lung
[15] = test system: SNB-75 CNS
[16] = test system: MOLT-4 leukemia
[17] = test system: SK-OV-3 ovarian
[18] = test system: ACHN renal
[19] = test system: M14 melanoma
[20] = test system: NCI-H522 lung
[21] = test system: SF-295 CNS
[22] = test system: IGROV1 ovarian
[23] = test system: OVCAR-4 ovarian
[24] = test system: COLO 205 colon
[25] = test system: UO-31 renal
[26] = test system: RXF-631 renal
[27] = test system: SNB-19 CNS
[28] = test system: U251 CNS
[29] = test system: CAKI-1 renal
[30] = test system: SNB-78 CNS
[31] = test system: A498 renal
[32] = test system: HOP-92 NSCLC
[33] = test system: OVCAR-3 ovarian
[34] = test system: HOP-62 NSCLC
[35] = test system: SK-MEL-2 melanoma
[36] = test system: EKVX NSCLC
[37] = test system: HCC-2998 colon
[38] = test system: SK-MEL-5 melanoma
[39] = test system: SW-620 colon
[40] = test system: OVCAR-8 ovarian
[41] = test system: HCT-15 colon
[42] = test system: HOP-18 NSCLC
[43] = test system: KM12 colon
[44] = test system: UACC-257 melanoma
[45] = test system: HCT-116 colon
[46] = test system: LXFL 529 NSCLC
[47] = test system: OVCAR-5 ovarian
[48] = test system: K-562 leukemia
[49] = test system: HL-60(TB) leukemia
[50] = test system: NCI-H226 lung
[51] = test system: SN12C renal
[52] = test system: SK-MEL-28 melanoma
[53] = test system: HT29 colon
[54] = test system: SF-268 CNS
[55] = test system: UACC-62 melanoma
[56] = test system: RXF 393 renal
[57] = test system: TK-10 renal
[58] = test system: 786-0 renal
[59] = test system: DMS 114 small cell lung

O=C(CC1Sc2ccccc2NC1=O)Nc1ccccc1[N+](=O)[O-] (stereo unspecified)
TGI [1]: > 100 µM | TGI [2]: > 100 µM | TGI [3]: > 100 µM | TGI [4]: > 100 µM | TGI [5]: > 100 µM | TGI [6]: > 100 µM | TGI [7]: > 100 µM | TGI [8]: > 100 µM | TGI [9]: > 100 µM | TGI [10]: > 100 µM | TGI [11]: > 100 µM | TGI [12]: > 100 µM | TGI [13]: > 100 µM | TGI [14]: > 100 µM | TGI [15]: > 100 µM | TGI [16]: > 100 µM | TGI [17]: > 100 µM | TGI [18]: > 100 µM | TGI [19]: > 100 µM | TGI [20]: 32.8 µM | TGI [21]: > 100 µM | TGI [22]: > 100 µM | TGI [23]: > 100 µM | TGI [24]: > 100 µM | TGI [25]: > 100 µM | TGI [26]: > 100 µM | TGI [27]: > 100 µM | TGI [28]: > 100 µM | TGI [29]: > 100 µM | TGI [30]: > 100 µM | TGI [31]: > 100 µM | TGI [32]: > 100 µM | TGI [33]: > 100 µM | TGI [34]: > 100 µM | TGI [35]: > 100 µM | TGI [36]: > 100 µM | TGI [37]: > 100 µM | TGI [38]: > 100 µM | TGI [39]: > 100 µM | TGI [40]: > 100 µM | TGI [41]: > 100 µM | TGI [42]: > 100 µM | TGI [43]: > 100 µM | TGI [44]: > 100 µM | TGI [45]: > 100 µM | TGI [46]: > 100 µM | TGI [47]: > 100 µM | TGI [48]: > 100 µM | TGI [49]: > 100 µM | TGI [50]: > 100 µM | TGI [51]: > 100 µM | TGI [52]: > 100 µM | TGI [53]: > 100 µM | TGI [54]: > 100 µM | TGI [55]: > 100 µM | TGI [56]: > 100 µM | TGI [57]: > 100 µM

CC(=O)OCCOCNC(=S)N/N=C/c1ccc([N+](=O)[O-])o1
TGI [1]: > 100 µM | TGI [2]: > 100 µM | TGI [3]: > 100 µM | TGI [4]: > 100 µM | TGI [7]: > 100 µM | TGI [8]: 31 µM | TGI [9]: > 100 µM | TGI [10]: > 100 µM | TGI [11]: > 100 µM | TGI [12]: > 100 µM | TGI [13]: > 100 µM | TGI [14]: > 100 µM | TGI [15]: > 100 µM | TGI [17]: > 100 µM | TGI [18]: > 100 µM | TGI [19]: > 100 µM | TGI [20]: > 100 µM | TGI [21]: > 100 µM | TGI [22]: > 100 µM | TGI [23]: > 100 µM | TGI [24]: 42.9 µM | TGI [25]: > 100 µM | TGI [26]: > 100 µM | TGI [27]: > 100 µM | TGI [28]: > 100 µM | TGI [58]: > 100 µM | TGI [30]: > 100 µM | TGI [31]: > 100 µM | TGI [33]: > 100 µM | TGI [34]: > 100 µM | TGI [35]: > 100 µM | TGI [36]: > 100 µM | TGI [37]: > 100 µM | TGI [38]: > 100 µM | TGI [39]: > 100 µM | TGI [40]: > 100 µM | TGI [41]: > 100 µM | TGI [42]: > 100 µM | TGI [43]: > 100 µM | TGI [44]: > 100 µM | TGI [45]: > 100 µM | TGI [59]: 43.1 µM | TGI [46]: > 100 µM | TGI [47]: > 100 µM | TGI [48]: > 100 µM | TGI [49]: 39.2 µM | TGI [50]: > 100 µM | TGI [51]: > 100 µM | TGI [52]: > 100 µM | TGI [53]: > 100 µM | TGI [54]: > 100 µM | TGI [55]: > 100 µM | TGI [56]: > 100 µM | TGI [57]: > 100 µM
